Consider 16 molecules from article PMC9971899, “Identification and structural analysis of a carbohydrate-binding module specific to alginate, a representative of a new family, CBM96” (The Journal of Biological Chemistry, 2022).

The structures appear in SMILES notation. Values joined by “and” are separate entries in the source; they are usually repeats but may differ in a detail not shown here. Equal values may be shown once.

The target in test [1] is T1, TM6-N4 (Defluviitalea phaphyphila, UniProt A0A4Y5UXE1).
T1 construct: gene Dp0100; TM6-N4 truncation of Dp0100 (187 amino acids, within TM6 segment 1020-1446, without CBM35), His tag, produced in E. coli BL21 (DE3); monomer, Ca2+ in crystal structure
As to the kind of experiment: Isothermal titration calorimetry (MicroCal PEAQ-ITC) of 20 uM TM6-N4 with 200 uM oligoalginate in 20 mM Tris-HCl pH 7.0 without NaCl at 25 °C, one-site binding model, triplicate for most ligands. As to conditions: SD, n = 3. As for the experimental part: (§1) To characterize the binding of TM6-N4 to alginate, isothermal titration calorimetry (ITC) experiments were carried out at 25 °C and pH 7.0, with alginate and oligoalginate standards including G3, G4, G5, G6, G7, M3, M5, M6, and M7 as substrate and TM6-N4 as the enzyme. […] Nevertheless, G3 produced a profile of CBM–ligand interaction (Fig. 2A). It is thus likely that the binding sites of TM6-N4 required at least three uronic acid units to yield stable binding complexes. […] These discrepancies may reflect the fact that one alginate chain has accommodated several protein molecules and the fact of the thermodynamic instability of the long alginate chain.
(§2) Figure 2 Thermograms (upper panels) and binding isotherms with theoretical fits (lower panels) obtained for the binding. G3 (A), G4 (B), G5 (C), G6 (D), G7 (E), M3 (F), M5 (G), M6 (H), M7 (I), and alginate (J) to TM6-N4. The buffer used was 20 mM Tris–HCl buffer, pH 7.0. Protein concentration was 20 μM for TM6-N4.
(§3) The proteins were dialyzed extensively against buffer with 20 mM Tris–HCl (pH 7.0) without NaCl and adjusted concentration to 20 μM, and the oligosaccharide ligands (purity ≥95%; Qingdao BZ Oligo Biotech Co Ltd) or alginate ligands (viscosity >0.02 Pa·s, 1% alginate in H2O at 25 °C) were dissolved in the same buffer to minimize heats of dilution with a concentration of 200 μM. To avoid bubble formation, all the samples were degassed by centrifugation at 12,000 rpm/10 min. Calorimetric titration was performed with MicroCal PEAQ-ITC (Malvern Panalytical). During a titration experiment, the protein sample was stirred at a speed of 750 rpm and kept a constant temperature of 25 °C, and the titration needle was filled with 80 μl oligosaccharide or alginate ligand. Titrations were completed after 19 injections (each 3 μl) at an interval of 150 s. The data were analyzed by using the one-site binding model in the MicroCal PEAQ-ITC Analysis software. The fitted data yielded the dissociation constant (Kd), the number of binding sites on the protein (n), and the enthalpy of binding (ΔH). Other thermodynamic parameters can be calculated by using the standard thermodynamic equation ΔG = −RTln Ka = ΔH-TΔS. Titrations were carried out in triplicate for most ligands, and the errors are the SD of the mean of these replicates.

The subject of test [2] is TM6-N4. Nature of the test: Isothermal titration calorimetry of alginate and oligoalginate binding to TM6-N4. As to conditions: ITC, 25 °C, pH 7.0; for TΔS: calculated from ΔG = ΔH-TΔS; for ΔG (binding free energy change): calculated from ΔG = −RTln Ka. Set-up: species or system Defluviitalea phaphyphila. As for the experimental part:
as §1, §2, §3

In test [1], `O=C(O)[C@@H]1O[C@@H](O[C@H]2[C@H](O)[C@H](O)[C@H](O[C@H]3[C@H](O)[C@H](O)C(O)O[C@H]3C(=O)O)O[C@H]2C(=O)O)[C@@H](O)[C@@H](O)[C@@H]1O` (stereo partly drawn) [G3, alpha-L-guluronate trisaccharide (triguluronate)] registered a Kd of 3100 ± 100 nM.
In the case of `O=C(O)[C@@H]1O[C@@H](O[C@H]2[C@H](O)[C@H](O)[C@H](O[C@H]3[C@H](O)[C@H](O)C(O)O[C@H]3C(=O)O)O[C@H]2C(=O)O)[C@@H](O)[C@@H](O)[C@@H]1O` (some centres unmarked) [G3], in test [2], the ΔH is -15.1 ± 3.3 kcal/mol; the TΔS is -7.6 kcal/mol; the “ΔG (binding free energy change)” value was -7.5 kcal/mol and -7.5 ± 0.1 kcal/mol.
In the case of `O=C(O)[C@@H]1O[C@@H](O[C@H]2[C@H](O)[C@H](O)[C@H](O[C@H]3[C@H](O)[C@H](O)[C@H](O[C@H]4[C@H](O)[C@H](O)C(O)O[C@H]4C(=O)O)O[C@H]3C(=O)O)O[C@H]2C(=O)O)[C@@H](O)[C@@H](O)[C@@H]1O` (stereo partly drawn) [G4, alpha-L-guluronate tetrasaccharide (tetraguluronate)], binding in test [1] was put at a Kd of 600 ± 100 nM.
Turning to `O=C(O)[C@@H]1O[C@@H](O[C@H]2[C@H](O)[C@H](O)[C@H](O[C@H]3[C@H](O)[C@H](O)[C@H](O[C@H]4[C@H](O)[C@H](O)C(O)O[C@H]4C(=O)O)O[C@H]3C(=O)O)O[C@H]2C(=O)O)[C@@H](O)[C@@H](O)[C@@H]1O` (some centres unmarked) [G4], in test [2], the ΔH is -7.3 ± 0.2 kcal/mol; the TΔS was 1.1 kcal/mol; the “ΔG (binding free energy change)” value was -8.4 kcal/mol and -8.4 ± 0.1 kcal/mol.
Molecule `O=C(O)[C@@H]1O[C@@H](O[C@H]2[C@H](O)[C@H](O)[C@H](O[C@H]3[C@H](O)[C@H](O)[C@H](O[C@H]4[C@H](O)[C@H](O)[C@H](O[C@H]5[C@H](O)[C@H](O)C(O)O[C@H]5C(=O)O)O[C@H]4C(=O)O)O[C@H]3C(=O)O)O[C@H]2C(=O)O)[C@@H](O)[C@@H](O)[C@@H]1O` (stereo partly drawn) [G5, alpha-L-guluronate pentasaccharide (pentaguluronate)] displayed a dissociation constant Kd in test [1] of 500 ± 100 nM.
Take `O=C(O)[C@@H]1O[C@@H](O[C@H]2[C@H](O)[C@H](O)[C@H](O[C@H]3[C@H](O)[C@H](O)[C@H](O[C@H]4[C@H](O)[C@H](O)[C@H](O[C@H]5[C@H](O)[C@H](O)C(O)O[C@H]5C(=O)O)O[C@H]4C(=O)O)O[C@H]3C(=O)O)O[C@H]2C(=O)O)[C@@H](O)[C@@H](O)[C@@H]1O` (some centres unmarked) [G5]: in test [2], the ΔH is -12.3 ± 0.4 kcal/mol; the TΔS is -3.6 kcal/mol; the “ΔG (binding free energy change)” value is -8.6 kcal/mol and -8.6 ± 0.1 kcal/mol.
In turn, `O=C(O)[C@@H]1O[C@@H](O[C@H]2[C@H](O)[C@H](O)[C@H](O[C@H]3[C@H](O)[C@H](O)[C@H](O[C@H]4[C@H](O)[C@H](O)[C@H](O[C@H]5[C@H](O)[C@H](O)[C@H](O[C@H]6[C@H](O)[C@H](O)C(O)O[C@H]6C(=O)O)O[C@H]5C(=O)O)O[C@H]4C(=O)O)O[C@H]3C(=O)O)O[C@H]2C(=O)O)[C@@H](O)[C@@H](O)[C@@H]1O` (stereo partly drawn) [G6, alpha-L-guluronate hexasaccharide (hexaguluronate)] gave a dissociation constant (Kd) in test [1] of 20 ± 20 nM.
Consider `O=C(O)[C@@H]1O[C@@H](O[C@H]2[C@H](O)[C@H](O)[C@H](O[C@H]3[C@H](O)[C@H](O)[C@H](O[C@H]4[C@H](O)[C@H](O)[C@H](O[C@H]5[C@H](O)[C@H](O)[C@H](O[C@H]6[C@H](O)[C@H](O)C(O)O[C@H]6C(=O)O)O[C@H]5C(=O)O)O[C@H]4C(=O)O)O[C@H]3C(=O)O)O[C@H]2C(=O)O)[C@@H](O)[C@@H](O)[C@@H]1O` (some centres unmarked) [G6], for which, in test [2], the ΔH was -8.6 ± 0.4 kcal/mol; the TΔS is given as 1.9 kcal/mol; the “ΔG (binding free energy change)” value was -10.5 kcal/mol and -10.5 ± 0.1 kcal/mol.
In test [1], `O=C(O)[C@@H]1O[C@@H](O[C@H]2[C@H](O)[C@H](O)[C@H](O[C@H]3[C@H](O)[C@H](O)[C@H](O[C@H]4[C@H](O)[C@H](O)[C@H](O[C@H]5[C@H](O)[C@H](O)[C@H](O[C@H]6[C@H](O)[C@H](O)[C@H](O[C@H]7[C@H](O)[C@H](O)C(O)O[C@H]7C(=O)O)O[C@H]6C(=O)O)O[C@H]5C(=O)O)O[C@H]4C(=O)O)O[C@H]3C(=O)O)O[C@H]2C(=O)O)[C@@H](O)[C@@H](O)[C@@H]1O` (stereo partly drawn) [G7, alpha-L-guluronate heptasaccharide (heptaguluronate)] yielded a Kd of 300 ± 70 nM.
For the molecule `O=C(O)[C@@H]1O[C@@H](O[C@H]2[C@H](O)[C@H](O)[C@H](O[C@H]3[C@H](O)[C@H](O)[C@H](O[C@H]4[C@H](O)[C@H](O)[C@H](O[C@H]5[C@H](O)[C@H](O)[C@H](O[C@H]6[C@H](O)[C@H](O)[C@H](O[C@H]7[C@H](O)[C@H](O)C(O)O[C@H]7C(=O)O)O[C@H]6C(=O)O)O[C@H]5C(=O)O)O[C@H]4C(=O)O)O[C@H]3C(=O)O)O[C@H]2C(=O)O)[C@@H](O)[C@@H](O)[C@@H]1O` (some centres unmarked) [G7], in test [2], the ΔH is -14.2 ± 0.4 kcal/mol; the TΔS is -5.4 kcal/mol; the “ΔG (binding free energy change)” value is -8.9 kcal/mol and -8.9 ± 0.1 kcal/mol.
`O=C(O)[C@H]1O[C@@H](O[C@H]2[C@H](O)[C@H](O)[C@H](O[C@H]3[C@H](O)[C@H](O)[C@H](O[C@H]4[C@H](O)[C@H](O)[C@H](O[C@H]5[C@H](O)[C@H](O)C(O)O[C@@H]5C(=O)O)O[C@@H]4C(=O)O)O[C@@H]3C(=O)O)O[C@@H]2C(=O)O)[C@@H](O)[C@@H](O)[C@@H]1O` (stereo partly drawn) [M5, mannuronate pentasaccharide (beta-D-mannuronate pentasaccharide)] came in with a Kd in test [1] of 1200 ± 600 nM.
As to `O=C(O)[C@H]1O[C@@H](O[C@H]2[C@H](O)[C@H](O)[C@H](O[C@H]3[C@H](O)[C@H](O)[C@H](O[C@H]4[C@H](O)[C@H](O)[C@H](O[C@H]5[C@H](O)[C@H](O)C(O)O[C@@H]5C(=O)O)O[C@@H]4C(=O)O)O[C@@H]3C(=O)O)O[C@@H]2C(=O)O)[C@@H](O)[C@@H](O)[C@@H]1O` (some centres unmarked) [M5, mannuronate pentasaccharide], in test [2], the ΔH was -8.6 ± 1.2 kcal/mol; the TΔS was -0.6 kcal/mol; the “ΔG (binding free energy change)” value was -8.1 kcal/mol and -8.1 ± 0.1 kcal/mol.
For `O=C(O)[C@H]1O[C@@H](O[C@H]2[C@H](O)[C@H](O)[C@H](O[C@H]3[C@H](O)[C@H](O)[C@H](O[C@H]4[C@H](O)[C@H](O)[C@H](O[C@H]5[C@H](O)[C@H](O)[C@H](O[C@H]6[C@H](O)[C@H](O)C(O)O[C@@H]6C(=O)O)O[C@@H]5C(=O)O)O[C@@H]4C(=O)O)O[C@@H]3C(=O)O)O[C@@H]2C(=O)O)[C@@H](O)[C@@H](O)[C@@H]1O` (stereo partly drawn) [M6, beta-D-mannuronate hexasaccharide (hexamannuronate)], the dissociation constant Kd in test [1] was 60 ± 60 nM.
With `O=C(O)[C@H]1O[C@@H](O[C@H]2[C@H](O)[C@H](O)[C@H](O[C@H]3[C@H](O)[C@H](O)[C@H](O[C@H]4[C@H](O)[C@H](O)[C@H](O[C@H]5[C@H](O)[C@H](O)[C@H](O[C@H]6[C@H](O)[C@H](O)C(O)O[C@@H]6C(=O)O)O[C@@H]5C(=O)O)O[C@@H]4C(=O)O)O[C@@H]3C(=O)O)O[C@@H]2C(=O)O)[C@@H](O)[C@@H](O)[C@@H]1O` (some centres unmarked) [M6], in test [2], the ΔH is -3.5 ± 0.3 kcal/mol; the TΔS is recorded as 6.4 kcal/mol; the “ΔG (binding free energy change)” value is -9.9 kcal/mol and -9.9 ± 0.1 kcal/mol.
For `O=C(O)[C@H]1O[C@@H](O[C@H]2[C@H](O)[C@H](O)[C@H](O[C@H]3[C@H](O)[C@H](O)[C@H](O[C@H]4[C@H](O)[C@H](O)[C@H](O[C@H]5[C@H](O)[C@H](O)[C@H](O[C@H]6[C@H](O)[C@H](O)[C@H](O[C@H]7[C@H](O)[C@H](O)C(O)O[C@@H]7C(=O)O)O[C@@H]6C(=O)O)O[C@@H]5C(=O)O)O[C@@H]4C(=O)O)O[C@@H]3C(=O)O)O[C@@H]2C(=O)O)[C@@H](O)[C@@H](O)[C@@H]1O` (stereo partly drawn) [M7, beta-D-mannuronate heptasaccharide (heptamannuronate)], in test [1], the affinity, expressed as Kd, was 200 ± 100 nM.
Consider `O=C(O)[C@H]1O[C@@H](O[C@H]2[C@H](O)[C@H](O)[C@H](O[C@H]3[C@H](O)[C@H](O)[C@H](O[C@H]4[C@H](O)[C@H](O)[C@H](O[C@H]5[C@H](O)[C@H](O)[C@H](O[C@H]6[C@H](O)[C@H](O)[C@H](O[C@H]7[C@H](O)[C@H](O)C(O)O[C@@H]7C(=O)O)O[C@@H]6C(=O)O)O[C@@H]5C(=O)O)O[C@@H]4C(=O)O)O[C@@H]3C(=O)O)O[C@@H]2C(=O)O)[C@@H](O)[C@@H](O)[C@@H]1O` (some centres unmarked) [M7], for which, in test [2], the ΔH is -4.2 ± 0.8 kcal/mol; the TΔS is given as 5.2 kcal/mol; the “ΔG (binding free energy change)” value is -9.3 kcal/mol and -9.3 ± 0.1 kcal/mol.

By Kd is commonly meant the concentration at which binding is half-saturated. High values mean weaker binding, low ones tighter binding.
